Reference: publication PMC8267566, “Human GPR17 missense variants identified in metabolic disease patients have distinct downstream signaling profiles” (The Journal of Biological Chemistry, 2021)

How the values were obtained:
Type in all cases: cell-based
hGPR17L-WT = target: T1, hGPR17L-WT (Homo sapiens, UniProt Q13304)
T1 construct: expressed in transfected cells; host or cells: HEK293 (ATCC CRL-1573), transient transfection of pcDNA3-HA-hGPR17L
Description: (§1) For agonist-mediated stimulatory cAMP assays, HEK293 cells were seeded and transfected as noted above. Cells were treated with 100 ng/ml pertussis toxin overnight (Sigma-Aldrich P2980). Twenty-four hours posttransfection, growth medium and transfection mix were aspirated and replaced with 100 μl/well equilibration medium (2% Promega GloSensor cAMP reagent [E1291; Promega Corporation] in CO2-independent medium) containing 100 ng/ml pertussis toxin and incubated at room temperature for 2 h. Baseline luminescence was read every 2 min on a Molecular Devices SpectraMax iD5 plate reader (Molecular Devices) at ambient room temperature for 8 min. Subsequently, 10 μl/well MDL29,951 diluted in assay buffer (HBSS, 20 mM HEPES, pH 7.2) was added and luminescence was read every 2 min for 16 min. Within each well, the luminescence values for each time point were normalized to their average baseline luminescence values. The average luminescence values for the time points between 8 and 16 min after MDL29,951 addition were expressed as a percentage of the maximum response observed for hGPR17L-WT.

hGPR17L-G136S = target: T2, hGPR17L-G136S (Homo sapiens, UniProt Q13304, G136S)
T2 construct: expressed in transfected cells; host or cells: HEK293 (ATCC CRL-1573), transient transfection
Description: as §1

hGPR17L-V96M = target: T3, hGPR17L-V96M (Homo sapiens, UniProt Q13304, V96M)
T3 construct: expressed in transfected cells; host or cells: HEK293 (ATCC CRL-1573), transient transfection
Description: as §1

hGPR17L-D105N = target: T4, hGPR17L-D105N (Homo sapiens, UniProt Q13304, D105N)
T4 construct: expressed in transfected cells; host or cells: HEK293 (ATCC CRL-1573), transient transfection
Description: as §1

hGPR17L-G354V = target: T5, hGPR17L-G354V (Homo sapiens, UniProt Q13304, G354V); assay: GloSensor stimulatory cAMP assay with pertussis toxin pretreatment
T5 construct: expressed in transfected cells; host or cells: HEK293 (ATCC CRL-1573)
Description: as §1

hGPR17L-V103M = target: T6, hGPR17L-V103M (Homo sapiens, UniProt Q13304, V103M); assay: as above
T6 construct: expressed in transfected cells; host or cells: HEK293 (ATCC CRL-1573), transient transfection
Description: as §1

hGPR17L-R248Q = target: T7, hGPR17L-R248Q (Homo sapiens, UniProt Q13304, R248Q); assay: as above
T7 construct: expressed in transfected cells; host or cells: HEK293 (ATCC CRL-1573), transient transfection
Description: as §1

hGPR17L-R301H = target: T8, hGPR17L-R301H (Homo sapiens, UniProt Q13304, R301H); assay: as above
T8 construct: expressed in transfected cells; host or cells: HEK293 (ATCC CRL-1573)
Description: as §1

hGPR17L-F43L = target: T9, hGPR17L-F43L (Homo sapiens, UniProt Q13304, F43L); assay: as above
T9 construct: expressed in transfected cells; host or cells: HEK293 (ATCC CRL-1573), transient transfection
Description: as §1

hGPR17L-A131T = target: T10, hGPR17L-A131T (Homo sapiens, UniProt Q13304, A131T); assay: as above
T10 construct: expressed in transfected cells; host or cells: HEK293 (ATCC CRL-1573), transient transfection
Description: as §1

[1] = read-out: Stimulatory cAMP EC50

T5 sequence (Q13304 whole entry G354V): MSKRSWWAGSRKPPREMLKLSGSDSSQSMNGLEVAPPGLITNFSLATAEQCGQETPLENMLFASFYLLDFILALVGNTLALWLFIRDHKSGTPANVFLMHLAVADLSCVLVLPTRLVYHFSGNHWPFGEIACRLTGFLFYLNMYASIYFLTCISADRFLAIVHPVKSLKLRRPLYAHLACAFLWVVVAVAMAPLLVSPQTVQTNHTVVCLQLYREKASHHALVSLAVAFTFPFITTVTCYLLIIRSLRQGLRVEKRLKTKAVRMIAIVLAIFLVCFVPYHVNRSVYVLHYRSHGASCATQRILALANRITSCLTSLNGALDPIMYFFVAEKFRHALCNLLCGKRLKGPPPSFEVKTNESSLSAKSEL
T7 sequence (Q13304 whole entry R248Q): as the sequence (Q13304 whole entry G354V) above, with R248Q, V354G counted along it
T6 sequence (Q13304 whole entry V103M): as the sequence (Q13304 whole entry G354V) above, with V103M, V354G counted along it
T8 sequence (Q13304 whole entry R301H): as the sequence (Q13304 whole entry G354V) above, with R301H, V354G counted along it
T1 sequence (Q13304 whole entry): as the sequence (Q13304 whole entry G354V) above, with V354G counted along it
T9 sequence (Q13304 whole entry F43L): as the sequence (Q13304 whole entry G354V) above, with F43L, V354G counted along it
T10 sequence (Q13304 whole entry A131T): as the sequence (Q13304 whole entry G354V) above, with A131T, V354G counted along it
T3 sequence (Q13304 whole entry V96M): as the sequence (Q13304 whole entry G354V) above, with V96M, V354G counted along it
T2 sequence (Q13304 whole entry G136S): as the sequence (Q13304 whole entry G354V) above, with G136S, V354G counted along it
T4 sequence (Q13304 whole entry D105N): as the sequence (Q13304 whole entry G354V) above, with D105N, V354G counted along it

## O=C(O)CCc1c(C(=O)O)[nH]c2cc(Cl)cc(Cl)c12 [MDL29,951]
hGPR17L-WT
  Stimulatory cAMP Efficacy (% of WT Emax): 100 % of WT Emax
  Stimulatory cAMP pEC50 ± SEM: 5.18 ± 0.04
  maximum stimulatory cAMP response: 1.21 ± 0.24 ΔRLU/RLU
hGPR17L-WT; [1]
  EC50: 6.6 µM
hGPR17L-G136S
  stimulatory cAMP response: unable to promote stimulatory cAMP responses
hGPR17L-V96M
  stimulatory cAMP response: unable to promote stimulatory cAMP responses
hGPR17L-D105N
  stimulatory cAMP response: unable to promote stimulatory cAMP responses
hGPR17L-G354V
  Stimulatory cAMP pEC50 ± SEM: 4.88 ± 0.12
hGPR17L-G354V; hGPR17L-G354V, HEK293, 100 ng/ml pertussis toxin overnight
  Stimulatory cAMP Efficacy (% of WT Emax): 105 ± 23 % of WT Emax
hGPR17L-G354V; [1]
  EC50: 14 µM
hGPR17L-V103M
  Stimulatory cAMP pEC50 ± SEM: 4.33 ± 0.36
  loss of potency, fold shift in EC50 vs hGPR17L-WT (stimulatory cAMP): 3–7 fold
hGPR17L-V103M; hGPR17L-V103M, HEK293, 100 ng/ml pertussis toxin overnight
  Stimulatory cAMP Efficacy (% of WT Emax): 150 ± 48 % of WT Emax
hGPR17L-V103M; [1]
  EC50: 47 µM
hGPR17L-R248Q
  Stimulatory cAMP pEC50 ± SEM: 5.22 ± 0.01
hGPR17L-R248Q; hGPR17L-R248Q, HEK293, 100 ng/ml pertussis toxin overnight
  Stimulatory cAMP Efficacy (% of WT Emax): 41 ± 1.7 % of WT Emax
hGPR17L-R248Q; [1]
  EC50: 6.1 µM
hGPR17L-R301H
  Stimulatory cAMP pEC50 ± SEM: 4.84 ± 0.12
hGPR17L-R301H; hGPR17L-R301H, HEK293, 100 ng/ml pertussis toxin overnight
  Stimulatory cAMP Efficacy (% of WT Emax): 68 ± 11 % of WT Emax
hGPR17L-R301H; [1]
  EC50: 16 µM
hGPR17L-F43L
  Stimulatory cAMP pEC50 ± SEM: 5.21 ± 0.13
hGPR17L-F43L; hGPR17L-F43L, HEK293, 100 ng/ml pertussis toxin overnight
  Stimulatory cAMP Efficacy (% of WT Emax): 99 ± 20 % of WT Emax
hGPR17L-F43L; [1]
  EC50: 6.2 µM
hGPR17L-A131T
  Stimulatory cAMP pEC50 ± SEM: 4.72 ± 0.05
  loss of potency, fold shift in EC50 vs hGPR17L-WT (stimulatory cAMP): 3–7 fold
hGPR17L-A131T; hGPR17L-A131T, HEK293, 100 ng/ml pertussis toxin overnight
  Stimulatory cAMP Efficacy (% of WT Emax): 105 ± 21 % of WT Emax
hGPR17L-A131T; [1]
  EC50: 19 µM
